From patent US7977366B2, “Treating an inflammatory disorder or inhibiting respiratory burst in adherent neutrophils with chemical inhibitors of neutrophil activation” (Cornell Research Foundation, Inc., priority 2003, dated 2011)
“Also recorded” adds a separate entry of the source.

How the values were obtained:
human neutrophils [1] = experiment: TNF triggered degranulation of neutrophils (lactoferrin and myeloperoxidase release, ELISA); format: cell-based; details: for myeloperoxidase (MPO) release triggered by TNF: marker of azurophil granule; for lactoferrin (LF) release triggered by TNF: marker of specific granule
Method: Respiratory burst was measured as described elsewhere (De la Harpe et al., “A Semi-Automated Micro-Assay for H2O2 Release by Human Blood Monocytes and Mouse Peritoneal Macrophages,” J Immunol Methods 78:323-336 (1985), which is hereby incorporated by reference in its entirety). Briefly, 96-well flat-bottomed plates (Primaria, Falcon) were coated with 50 μl/well of FBS in 5% CO2 at 37° C. for at least 1 h and washed three times with 0.9% saline. Neutrophils (1.5×10^4) were added to triplicate wells containing 100 μl of reaction mixture (2.4 nm scopoletin, 0.5 μg horseradish peroxidase (HRP), and 1 mM NaN3) and stimulated with either buffer control, TNF (PreproTech, London, UK) or phorbol myristate acetate (PMA), each at 100 ng/ml. The reduction of scopoletin by H2O2 was recorded every 15 min on a plate-reading fluorometer until H2O2 release reached plateau and the amount of H2O2 released calculated as described (De la Harpe et al., “A Semi-Automated Micro-Assay for H2O2 Release by Human Blood Monocytes and Mouse Peritoneal Macrophages,” J Immunol Methods 78:323-336 (1985), which is hereby incorporated by reference in its entirety). The supernatant from the H2O2 release assay with 1.5×10^4 neutrophils was used to measure degranulation using lactoferrin (LF) or myeloperoxidase (MPO) ELISA kit (Oxis International, Inc., Portland, Oreg.). Spontaneous cell death from the same supernatant was measured using Cytotoxicity Detection Kit (Roche Molecular Biochemicals, Nutley, N.J.). The total cell content of LF, MPO, and lactate dehydrogenase (LDH) was determined after lysing cells with 1% Triton X100. LDH is a cytosolic enzyme whose release indicates cell lysis, such that high release of LF or MPO in the face of low release of LDH is taken as a measure of degranulation.
To test whether any of these compounds has any role in degranulation, the release of lactoferrin (LF) (as a marker of specific granule) and myeloperoxidase (MPO, as a marker of azurophil granule) were measured in the supernatant. […] The effect of Comp I on LF release was inconclusive due to high background release of LF in non-stimulated cells.

human neutrophils [2] = experiment: Killing of bacteria by neutrophils; format: cell-based
Pyk2 = experiment: TNF-induced phosphorylation of Pyk2 Y402 in neutrophils (western blot); format: cell-based, human
Method: Tissue culture plates (Primaria, Falcon) were coated with 3 ml of FBS in 5% CO2 at 37° C. for at least 1 h and washed twice with 0.9% saline. Isolated human neutrophils (1.5×10^6) were added to each plate containing 4 ml of reaction mixture, incubated with each compound at 37° C. for 30 min, and stimulated with either buffer control or TNF (100 ng/ml). When cells were fully spread (20-40 min), they were treated with 5 mM diisopropylfluorophosphate to inhibit serine proteases and lysed with either 125 μl of SDS lysis buffer (10 mM Tris-HCl, pH 7.6, 150 mM NaCl, 1% SDS, 1 mM PMSF, 1 mM Na pyrophosphate, 1 mM NaF, 1 mM vanadate, 5 μg/ml each of aprotinin, leupeptin, chymostatin, pepstatin A) for western blot, or with 200 μl of non-denaturing modified RIPA buffer (10 mM Tris-HCl, pH 7.6, 150 mM NaCl, 1% Triton-X100, 1 mM PMSF, 1 mM Na pyrophosphate, 1 mM NaF, 1 mM vanadate, 5 μg/ml each of aprotinin, leupeptin, chymostatin, pepstatin A) for immunoprecipitation. The cell lysate was passed through a 26-gauge needle six times to shear DNA and centrifuged at 20,000×g for 15 min to remove cell debris and DNA. The protein concentration was determined using a Bio-Rad (Indianapolis, Ind.) kit. […] After further washing with TBST, bound antibody was detected by enhanced chemiluminescence (Pierce ECL, Amersham Pharmacia, Piscataway, N.J.). […]

human neutrophils [3] = experiment: Reversibility of inhibition of TNF triggered respiratory burst after washing; format: cell-based; details: washed twice with cold KRPG before TNF 100 ng/ml
Method: Neutrophils were incubated with test compounds I-V or DMSO at 37° C. for 30 min in FBS coated tubes (Falcon, Cat. Number 352063), washed twice with cold KRPG, and plated in 96 well plates before stimulation with TNF (100 ng/ml) or an equivalent volume of KRPG buffer as a control. On a separate plate, compounds were added back to the neutrophils that were washed off compounds, and cells were stimulated to ensure neutrophils' capacity to respond. Neutrophils incubated with each compound without washing were also stimulated for comparison.

Row | SMILES | myeloperoxidase (MPO) release triggered by TNF (human neutrophils [1]) | lactoferrin (LF) release triggered by TNF (human neutrophils [1]) | bacterial killing ability of PMNs (general statement) (human neutrophils [2]) | TNF-induced phosphorylation of Pyk2 Y402 (activation of Pyk2) (Pyk2) | reversibility of inhibition of TNF triggered respiratory burst (human neutrophils [3]) | degranulation of neutrophils (general statement) (human neutrophils [1])
1 | Cc1nc(N/N=C/c2ccccc2O)c2c3c(sc2n1)CCCC3 [Comp I, 2-[(2-Methyl-5,6,7,8-tetrahydro-benzo[4,5]thieno [2,3-a]pyrimidin-4-yl)-hydrazonomethyl]-phenol] | almost complete inhibition | inconclusive |  |  |  | 
2 | O=C1CC(c2ccccc2)=NN1c1cccc(Cl)c1 [Comp II, 2-(3-Chloro-phenyl)-5-phenyl-2,4-dihydro-pyrazol-3-one] | very moderate inhibition | did not block | sparing | did not block | greatest reversibility | takes place normally; also recorded: sparing
3 | C(=N\Nc1ncnc2sc3c(c12)CCCC3)/c1cccnc1 [Comp III, N-Pyridin-3-ylmethylene-N-(5,6,7,8-tetrahydro-benzo[4,5] [2,3-a]pyrimidin-4-yl)-hydrazine] | almost complete inhibition | partially inhibited |  |  |  | 
4 | O=C(CSc1nc2ccccc2s1)N/N=C/c1cc([N+](=O)[O-])ccc1O [Comp IV, (Benzothiazol-2-ylsulfanyl)-acetic acid (2-hydroxy-5-nitro-benzylidene) -hydrazide] | almost complete inhibition | partially inhibited |  |  |  | 
